# Activity calls are given as the source filed them. The calls are words filed in the database; no cut-off is given here.
# Tests used:
# [1] = biological target: T1, Nuclear factor erythroid 2-related factor 2 (Homo sapiens) (UniProt Q16236); assay: Activation of Nrf2 in human BEAS2B cells assessed as upregulation of Nrf2 protein expression at 6.25 uM pretreated for 1 hr followed by co-treatment with PI3K inhibitor LY294002 for 18 hrs by immunoblot analysis; assay type: cell-based
# T1 sequence (whole entry): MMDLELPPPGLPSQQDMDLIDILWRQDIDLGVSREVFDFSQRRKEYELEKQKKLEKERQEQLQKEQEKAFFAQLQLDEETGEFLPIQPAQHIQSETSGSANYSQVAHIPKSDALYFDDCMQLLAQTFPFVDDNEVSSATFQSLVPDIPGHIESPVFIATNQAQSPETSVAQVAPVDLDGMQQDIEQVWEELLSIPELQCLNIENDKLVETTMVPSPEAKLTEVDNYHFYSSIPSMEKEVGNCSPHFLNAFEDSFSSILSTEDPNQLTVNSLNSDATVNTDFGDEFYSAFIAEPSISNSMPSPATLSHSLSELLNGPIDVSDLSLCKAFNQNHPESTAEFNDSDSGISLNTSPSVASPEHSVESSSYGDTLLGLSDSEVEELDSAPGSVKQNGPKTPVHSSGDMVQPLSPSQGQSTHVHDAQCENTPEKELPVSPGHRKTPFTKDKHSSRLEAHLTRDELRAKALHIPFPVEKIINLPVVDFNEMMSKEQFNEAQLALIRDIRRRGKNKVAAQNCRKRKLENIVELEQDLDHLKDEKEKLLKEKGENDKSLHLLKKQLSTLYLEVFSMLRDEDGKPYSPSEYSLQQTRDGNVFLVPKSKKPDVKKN
# [2] = biological target: T1, Nuclear factor erythroid 2-related factor 2 (Homo sapiens); assay: Induction of Nrf2 translocation from cytoplasm to nucleus in human BEAS2B cells at 6.25 uM after 18 hrs by immunoblot analysis; assay type: cell-based
# [3] = biological target: T1, Nuclear factor erythroid 2-related factor 2 (Homo sapiens); assay: Activation of Nrf2 in human BEAS2B cells assessed as upregulation of NQO1 protein expression at 3.12 to 25 uM after 12 hrs by immunoblot analysis; assay type: cell-based
# [4] = biological target: T1, Nuclear factor erythroid 2-related factor 2 (Homo sapiens); assay: Activation of Nrf2 in human BEAS2B cells assessed as upregulation of NQO1 protein expression at 6.25 uM pretreated for 1 hr followed by co-treatment with PI3K inhibitor LY294002 for 18 hrs by immunoblot analysis; assay type: cell-based
# [5] = biological target: T1, Nuclear factor erythroid 2-related factor 2 (Homo sapiens); assay: Activation of Nrf2 in human MDA-MB-231 cells assessed as upregulation of gamma-GCS protein expression after 16 hrs by immunoblot analysis; assay type: cell-based
# [6] = biological target: T1, Nuclear factor erythroid 2-related factor 2 (Homo sapiens); assay: Inhibition of Nrf2 (unknown origin) ubiquitylation transfected in human BEAS2B cells at 6.25 uM after 6 hrs by immunoblot analysis; assay type: cell-based
# [7] = biological target: T2, Nuclear factor erythroid 2-related factor 2 (Mus musculus) (UniProt Q60795); assay: Activation of Nrf2 in mouse Heap1c1c7 cells assessed as induction of NAD(P)H:quinone reductase activity at 6.25 uM pretreated for 1 hr followed by co-treatment with PERK inhibitor GSK2606414 for 24 hrs; assay type: cell-based
# T2 sequence (whole entry): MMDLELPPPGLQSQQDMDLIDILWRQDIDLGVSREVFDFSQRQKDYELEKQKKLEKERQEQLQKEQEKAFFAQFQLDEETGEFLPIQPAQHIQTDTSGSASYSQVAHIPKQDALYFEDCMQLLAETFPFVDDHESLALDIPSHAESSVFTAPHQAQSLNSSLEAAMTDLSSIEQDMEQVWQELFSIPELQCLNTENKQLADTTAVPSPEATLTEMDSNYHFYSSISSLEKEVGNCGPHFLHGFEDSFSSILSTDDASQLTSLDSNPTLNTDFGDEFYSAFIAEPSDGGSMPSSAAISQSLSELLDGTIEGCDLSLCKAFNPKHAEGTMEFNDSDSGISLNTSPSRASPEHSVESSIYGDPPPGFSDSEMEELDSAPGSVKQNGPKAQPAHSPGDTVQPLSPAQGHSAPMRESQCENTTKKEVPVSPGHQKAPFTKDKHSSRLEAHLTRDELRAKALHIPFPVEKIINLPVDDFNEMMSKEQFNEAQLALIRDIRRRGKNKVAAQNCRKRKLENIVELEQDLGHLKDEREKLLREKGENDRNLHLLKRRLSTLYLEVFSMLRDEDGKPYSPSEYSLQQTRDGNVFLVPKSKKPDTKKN
# BEAS-2B [8] = assay: Cytotoxicity against human BEAS2B cells assessed as decrease in cell viability at 6.25 after 24 hrs by MTT assay; assay type: cell-based
# [9] = biological target: T1, Nuclear factor erythroid 2-related factor 2 (Homo sapiens); assay: Activation of Nrf2 in human BEAS2B cells assessed as upregulation of NQO1 protein expression at 6.25 uM pretreated for 1 hr followed by co-treatment with MEK1/2 inhibitor PD98059 for 18 hrs by immunoblot analysis; assay type: cell-based
# [10] = biological target: T1, Nuclear factor erythroid 2-related factor 2 (Homo sapiens); assay: Activation of Nrf2 in human BEAS2B cells assessed as upregulation of Nrf2 protein expression at 6.25 uM pretreated for 1 hr followed by co-treatment with p38 MAPK inhibitor SB203580 for 18 hrs by immunoblot analysis; assay type: cell-based
# [11] = biological target: T2, Nuclear factor erythroid 2-related factor 2 (Mus musculus); assay: Activation of Nrf2 in mouse Heap1c1c7 cells assessed as induction of NAD(P)H:quinone reductase activity at 6.25 uM pretreated for 1 hr followed by co-treatment with PKC inhibitor Go6983 for 24 hrs; assay type: cell-based
# [12] = biological target: T1, Nuclear factor erythroid 2-related factor 2 (Homo sapiens); assay: Activation of Nrf2 in human BEAS2B cells assessed as upregulation of NQO1 protein expression at 6.25 uM pretreated for 1 hr followed by co-treatment with PKC inhibitor Ro-31-8220 for 18 hrs by immunoblot analysis; assay type: cell-based
# [13] = biological target: T1, Nuclear factor erythroid 2-related factor 2 (Homo sapiens); assay: Activation of Nrf2 in human BEAS2B cells assessed as upregulation of NQO1 protein expression at 6.25 uM after 48 hrs by immunoblot analysis; assay type: cell-based
# [14] = biological target: T1, Nuclear factor erythroid 2-related factor 2 (Homo sapiens); assay: Activation of Nrf2 in human BEAS2B cells assessed as upregulation of Nrf2 protein expression at 6.25 uM after 48 hrs by immunoblot analysis; assay type: cell-based
# BEAS-2B [15] = assay: Cytoprotective activity in human BEAS2B cells assessed as decrease in As(+3)-induced cell apoptosis at 6.25 uM preincubated for 8 hrs followed by As(+3) challenge and measured after 24 hrs by annexin V-FITC/propidium iodide staining-based flow cytometric method; assay type: functional
# [16] = biological target: T1, Nuclear factor erythroid 2-related factor 2 (Homo sapiens); assay: Activation of Nrf2 in human BEAS2B cells assessed as upregulation of Nrf2 protein expression at 6.25 uM pretreated for 1 hr followed by co-treatment with PKC inhibitor Go6983 for 18 hrs by immunoblot analysis; assay type: cell-based
# [17] = biological target: T1, Nuclear factor erythroid 2-related factor 2 (Homo sapiens); assay: Activation of Nrf2 in human BEAS2B cells assessed as upregulation of Nrf2 protein expression at 6.25 uM after 8 to 24 hrs by immunoblot analysis; assay type: cell-based
# [18] = biological target: T1, Nuclear factor erythroid 2-related factor 2 (Homo sapiens); assay: Activation of Nrf2 in human BEAS2B cells assessed as upregulation of gamma-GCS protein expression at 0.31 to 20 uM after 18 hrs by immunoblot analysis; assay type: cell-based
# [19] = biological target: T1, Nuclear factor erythroid 2-related factor 2 (Homo sapiens); assay: Activation of Nrf2 in human BEAS2B cells assessed as upregulation of GSH levels at 5 uM measured over 1 to 24 hrs; assay type: cell-based
# BEAS-2B [20] = assay: Cytotoxicity against human BEAS2B cells assessed as decrease in cell viability up to 25 uM after 48 hrs by MTT assay; assay type: cell-based
compound,measurement,setting,value
"COc1ccc(-c2coc3cc(OC)cc(O)c3c2=O)cc1 [4',7-DIMETHOXY-5-HYDROXYGENISTEIN]",Activity,[1],inactive
same,Activity,[2],Active
same,Activity,[3],Active
same,Activity,[4],inactive
same,Activity,[5],Dose-dependent effect
same,inhibition,[6],Active
same,Activity,[7],inactive
same,Activity,BEAS-2B [8],Non-Toxic
same,Activity,[9],inactive
same,Activity,[10],inactive
same,Activity,[11],inactive
same,Activity,[12],inactive
same,Activity,[13],inactive
same,Activity,[14],inactive
same,Activity,BEAS-2B [15],Active
same,Activity,[16],inactive
same,Activity,[17],Active
same,Activity,[18],Dose-dependent effect
same,Activity,[19],Active
same,Activity,BEAS-2B [20],Non-Toxic

# From ChEMBL document CHEMBL4229568, “Discovery of natural flavonoids as activators of Nrf2-mediated defense system: Structure-activity relationship and inhibition of intracellular oxidative insults” (Bioorg Med Chem, 2018)
